Experimental data reported in ChEMBL document CHEMBL4665642, “Anticancer profile of newly synthesized BRAF inhibitors possess 5-(pyrimidin-4-yl)imidazo[2,1-b]thiazole scaffold” (Bioorg Med Chem, 2019).

What was measured:
Type in all cases: functional
Settings in all cases: read-out: Activity
[1] = tested on: A549; test: Cytotoxicity against human A549 cells assessed as cell viability at 10 uM incubated for 48 hrs by sulforhodamine B assay relative to control
[2] = tested on: IGROV-1; test: Cytotoxicity against human IGROV-1 cells assessed as cell viability at 10 uM incubated for 48 hrs by sulforhodamine B assay relative to control
[3] = tested on: Malme-3M; test: Cytotoxicity against human Malme-3M cells assessed as cell viability at 10 uM incubated for 48 hrs by sulforhodamine B assay relative to control
[4] = tested on: OVCAR-8; test: Cytotoxicity against human OVCAR-8 cells assessed as cell viability at 10 uM incubated for 48 hrs by sulforhodamine B assay relative to control
[5] = tested on: NCI-H322M; test: Cytotoxicity against human NCI-H322M cells assessed as cell viability at 10 uM incubated for 48 hrs by sulforhodamine B assay relative to control
[6] = tested on: NCI-H23; test: Cytotoxicity against human NCI-H23 cells assessed as cell viability at 10 uM incubated for 48 hrs by sulforhodamine B assay relative to control
[7] = tested on: PC-3; test: Cytotoxicity against human PC-3 cells assessed as cell viability at 10 uM incubated for 48 hrs by sulforhodamine B assay relative to control
[8] = tested on: SNB-19; test: Cytotoxicity against human SNB-19 cells assessed as cell viability at 10 uM incubated for 48 hrs by sulforhodamine B assay relative to control
[9] = tested on: SR; test: Cytotoxicity against human SR cells assessed as cell viability at 10 uM incubated for 48 hrs by sulforhodamine B assay relative to control
[10] = tested on: MDA-MB-435; test: Cytotoxicity against human MDA-MB-435 cells assessed as cell viability at 10 uM incubated for 48 hrs by sulforhodamine B assay relative to control
[11] = tested on: SF-539; test: Cytotoxicity against human SF-539 cells assessed as cell viability at 10 uM incubated for 48 hrs by sulforhodamine B assay relative to control
[12] = tested on: RPMI-8226; test: Cytotoxicity against human RPMI-8226 cells assessed as cell viability at 10 uM incubated for 48 hrs by sulforhodamine B assay relative to control
[13] = tested on: UACC-257; test: Cytotoxicity against human UACC-257 cells assessed as cell viability at 10 uM incubated for 48 hrs by sulforhodamine B assay relative to control
[14] = tested on: NCI-H226; test: Cytotoxicity against human NCI-H226 cells assessed as cell viability at 10 uM incubated for 48 hrs by sulforhodamine B assay relative to control
[15] = tested on: M14; test: Cytotoxicity against human M14 cells assessed as cell viability at 10 uM incubated for 48 hrs by sulforhodamine B assay relative to control
[16] = tested on: SF-295; test: Cytotoxicity against human SF-295 cells assessed as cell viability at 10 uM incubated for 48 hrs by sulforhodamine B assay relative to control
[17] = tested on: CAKI-1; test: Cytotoxicity against human CAKI-1 cells assessed as cell viability at 10 uM incubated for 48 hrs by sulforhodamine B assay relative to control
[18] = tested on: NCI-H522; test: Cytotoxicity against human NCI-H522 cells assessed as cell viability at 10 uM incubated for 48 hrs by sulforhodamine B assay relative to control
[19] = tested on: SF-268; test: Cytotoxicity against human SF-268 cells assessed as cell viability at 10 uM incubated for 48 hrs by sulforhodamine B assay relative to control
[20] = tested on: SK-MEL-2; test: Cytotoxicity against human SK-MEL-2 cells assessed as cell viability at 10 uM incubated for 48 hrs by sulforhodamine B assay relative to control
[21] = tested on: LOX IMVI; test: Cytotoxicity against human LOX IMVI cells assessed as cell viability at 10 uM incubated for 48 hrs by sulforhodamine B assay relative to control
[22] = tested on: OVCAR-5; test: Cytotoxicity against human OVCAR-5 cells assessed as cell viability at 10 uM incubated for 48 hrs by sulforhodamine B assay relative to control
[23] = tested on: HOP-62; test: Cytotoxicity against human HOP-62 cells assessed as cell viability at 10 uM incubated for 48 hrs by sulforhodamine B assay relative to control
[24] = tested on: HCC 2998; test: Cytotoxicity against human HCC 2998 cells assessed as cell viability at 10 uM incubated for 48 hrs by sulforhodamine B assay relative to control
[25] = tested on: DU-145; test: Cytotoxicity against human DU-145 cells assessed as cell viability at 10 uM incubated for 48 hrs by sulforhodamine B assay relative to control
[26] = tested on: NCI/ADR-RES; test: Cytotoxicity against human NCI/ADR-RES cells assessed as cell viability at 10 uM incubated for 48 hrs by sulforhodamine B assay relative to control
[27] = tested on: SK-MEL-5; test: Cytotoxicity against human SK-MEL-5 cells assessed as cell viability at 10 uM incubated for 48 hrs by sulforhodamine B assay relative to control
[28] = tested on: Hs-578T; test: Cytotoxicity against human HS-578T cells assessed as cell viability at 10 uM incubated for 48 hrs by sulforhodamine B assay relative to control
[29] = tested on: TK-10; test: Cytotoxicity against human TK-10 cells assessed as cell viability at 10 uM incubated for 48 hrs by sulforhodamine B assay relative to control
[30] = tested on: MCF7; test: Cytotoxicity against human MCF7 cells assessed as cell viability at 10 uM incubated for 48 hrs by sulforhodamine B assay relative to control
[31] = tested on: RXF 393; test: Cytotoxicity against human RXF 393 cells assessed as cell viability at 10 uM incubated for 48 hrs by sulforhodamine B assay relative to control
[32] = tested on: MDA-MB-231; test: Cytotoxicity against human MDA-MB-231 cells assessed as cell viability at 10 uM incubated for 48 hrs by sulforhodamine B assay relative to control
[33] = tested on: SW-620; test: Cytotoxicity against human SW-620 cells assessed as cell viability at 10 uM incubated for 48 hrs by sulforhodamine B assay relative to control
[34] = tested on: EKVX; test: Cytotoxicity against human EKVX cells assessed as cell viability at 10 uM incubated for 48 hrs by sulforhodamine B assay relative to control
[35] = tested on: HCT-116; test: Cytotoxicity against human HCT-116 cells assessed as cell viability at 10 uM incubated for 48 hrs by sulforhodamine B assay relative to control
[36] = tested on: U-251; test: Cytotoxicity against human U-251 cells assessed as cell viability at 10 uM incubated for 48 hrs by sulforhodamine B assay relative to control
[37] = tested on: HOP-92; test: Cytotoxicity against human HOP-92 cells assessed as cell viability at 10 uM incubated for 48 hrs by sulforhodamine B assay relative to control
[38] = tested on: BT-549; test: Cytotoxicity against human BT-549 cells assessed as cell viability at 10 uM incubated for 48 hrs by sulforhodamine B assay relative to control
[39] = tested on: HCT-15; test: Cytotoxicity against human HCT-15 cells assessed as cell viability at 10 uM incubated for 48 hrs by sulforhodamine B assay relative to control
[40] = tested on: UO-31; test: Cytotoxicity against human UO-31 cells assessed as cell viability at 10 uM incubated for 48 hrs by sulforhodamine B assay relative to control
[41] = tested on: SNB-75; test: Cytotoxicity against human SNB-75 cells assessed as cell viability at 10 uM incubated for 48 hrs by sulforhodamine B assay relative to control

SMILES: O=S(=O)(NCCCNc1nccc(-c2c(-c3cccc(F)c3)nc3sccn23)n1)c1ccc(O)cc1
- viability at 10 µM [1]: 47.1%
- viability at 10 µM [2]: 32.6%
- viability at 10 µM [3]: 107%
- viability at 10 µM [4]: 66.2%
- viability at 10 µM [5]: 79.2%
- viability at 10 µM [6]: 87.6%
- viability at 10 µM [7]: 75%
- viability at 10 µM [8]: 77.7%
- viability at 10 µM [9]: 52.6%
- viability at 10 µM [10]: 33.4%
- viability at 10 µM [11]: 99.3%
- viability at 10 µM [12]: 73.6%
- viability at 10 µM [13]: 104%
- viability at 10 µM [14]: 64.3%
- viability at 10 µM [15]: 70.3%
- viability at 10 µM [16]: 92%
- viability at 10 µM [17]: 51.9%
- viability at 10 µM [18]: 85%
- viability at 10 µM [19]: 62.8%
- viability at 10 µM [20]: 81.3%
- viability at 10 µM [21]: 61.2%
- viability at 10 µM [22]: 113%
- viability at 10 µM [23]: 89%
- viability at 10 µM [24]: 100%
- viability at 10 µM [25]: 77.4%
- viability at 10 µM [26]: 79.1%
- viability at 10 µM [27]: 57%
- viability at 10 µM [28]: 85.6%
- viability at 10 µM [29]: 87.6%
- viability at 10 µM [30]: 32.2%
- viability at 10 µM [31]: 84%
- viability at 10 µM [32]: 83.9%
- viability at 10 µM [33]: 82.7%
- viability at 10 µM [34]: 78.8%
- viability at 10 µM [35]: 60%
- viability at 10 µM [36]: 73.2%
- viability at 10 µM [37]: 98.1%
- viability at 10 µM [38]: 82.5%
- viability at 10 µM [39]: 43.5%
- viability at 10 µM [40]: 31.3%
- viability at 10 µM [41]: 77.8%
